Assay results: ChEMBL document CHEMBL1201862, “PubChem BioAssay data set” (2004)
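Five concentrations, 48 hours, 96-well plates. GI50 is the concentration that inhibits growth by half.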 Activity calls are given as the source filed them. Cut-off read from the data, not from the text of the source: active = GI50 up to about 1.1 µM and inactive = higher.

How the values were obtained:
Assay in all cases: NCI-60 cell line screen, 48 h
HL-60 = test system: HL-60
NCI/ADR-RES = test system: NCI/ADR-RES
DU-145 = test system: DU-145
ACHN = test system: ACHN
OVCAR-3 = test system: OVCAR-3
SN12C = test system: SN12C
A498 = test system: A498
U-251 = test system: U-251
MDA-MB-435 = test system: MDA-MB-435
UACC-62 = test system: UACC-62
SK-MEL-2 = test system: SK-MEL-2
M14 = test system: M14
Hs-578T = test system: Hs-578T
OVCAR-8 = test system: OVCAR-8
Malme-3M = test system: Malme-3M
786-0 = test system: 786-0
TK-10 = test system: TK-10
PC-3 = test system: PC-3
MDA-MB-231 = test system: MDA-MB-231
A549 = test system: A549
RPMI-8226 = test system: RPMI-8226
SK-OV-3 = test system: SK-OV-3
MOLT-4 = test system: MOLT-4
SNB-75 = test system: SNB-75
SW-620 = test system: SW-620
OVCAR-4 = test system: OVCAR-4
HCT-116 = test system: HCT-116
IGROV-1 = test system: IGROV-1
BT-549 = test system: BT-549
HCC 2998 = test system: HCC 2998
NCI-H23 = test system: NCI-H23
COLO 205 = test system: COLO 205
OVCAR-5 = test system: OVCAR-5
LOX IMVI = test system: LOX IMVI
UO-31 = test system: UO-31
MCF7 = test system: MCF7
HCT-15 = test system: HCT-15
EKVX = test system: EKVX
CCRF-CEM = test system: CCRF-CEM
SF-268 = test system: SF-268
SNB-19 = test system: SNB-19
SK-MEL-5 = test system: SK-MEL-5
SK-MEL-28 = test system: SK-MEL-28
HOP-92 = test system: HOP-92
NCI-H226 = test system: NCI-H226
UACC-257 = test system: UACC-257
K562 = test system: K562
HOP-62 = test system: HOP-62
NCI-H522 = test system: NCI-H522
SF-295 = test system: SF-295
HT-29 = test system: HT-29
NCI-H460 = test system: NCI-H460
KM12 = test system: KM12
T47D = test system: T47D
MDA-N = test system: MDA-N
RXF 393 = test system: RXF 393
CAKI-1 = test system: CAKI-1
SR = test system: SR
SF-539 = test system: SF-539

With `NC(=S)Nc1ccc2c(c1)oc1ccccc12` the GI50 (HL-60) was 7.82 µM (inactive), the GI50 (NCI/ADR-RES) was > 100 µM (inactive) and the GI50 (DU-145) was > 100 µM (inactive). For the same molecule, the GI50 (ACHN) was > 100 µM (inactive), the GI50 (OVCAR-3) was > 100 µM (inactive) and the GI50 (SN12C) was > 100 µM (inactive). The GI50 (A498) was > 100 µM (inactive), the GI50 (U-251) was > 100 µM (inactive) and the GI50 (MDA-MB-435) was > 100 µM (inactive). The GI50 (UACC-62) was > 100 µM (inactive), the GI50 (SK-MEL-2) was > 100 µM (inactive) and the GI50 (M14) was > 100 µM (inactive). The GI50 (Hs-578T) was > 100 µM (inactive), the GI50 (OVCAR-8) was > 100 µM (inactive) and the GI50 (Malme-3M) was 8.11 µM (inactive). For the same molecule, the GI50 (786-0) was > 100 µM (inactive), the GI50 (TK-10) was > 100 µM (inactive) and the GI50 (PC-3) was > 100 µM (inactive). For the same molecule, the GI50 (MDA-MB-231) was > 100 µM (inactive), the GI50 (A549) was > 100 µM (inactive) and the GI50 (RPMI-8226) was 11.7 µM (inactive). The GI50 (SK-OV-3) was > 100 µM (inactive), the GI50 (MOLT-4) was 7.1 µM (inactive) and the GI50 (SNB-75) was > 100 µM (inactive). The GI50 (SW-620) was > 100 µM (inactive), the GI50 (OVCAR-4) was > 100 µM (inactive) and the GI50 (HCT-116) was > 100 µM (inactive). For the same molecule, the GI50 (IGROV-1) was > 100 µM (inactive), the GI50 (BT-549) was > 100 µM (inactive) and the GI50 (HCC 2998) was > 100 µM (inactive). The GI50 (NCI-H23) was > 83.6 µM (inactive), the GI50 (COLO 205) was > 100 µM (inactive) and the GI50 (OVCAR-5) was > 100 µM (inactive). The GI50 (LOX IMVI) was > 100 µM (inactive), the GI50 (UO-31) was > 28.4 µM (inactive) and the GI50 (MCF7) was 8.73 µM (inactive). The GI50 (HCT-15) was 55.1 µM, the GI50 (EKVX) was 10.4 µM (inactive) and the GI50 (CCRF-CEM) was 9.91 µM (inactive). For the same molecule, the GI50 (SF-268) was > 100 µM (inactive), the GI50 (SNB-19) was > 100 µM (inactive) and the GI50 (SK-MEL-5) was 18.9 µM (inactive). For the same molecule, the GI50 (SK-MEL-28) was > 100 µM (inactive), the GI50 (HOP-92) was > 100 µM (inactive) and the GI50 (NCI-H226) was 39 µM (inactive). For the same molecule, the GI50 (UACC-257) was > 100 µM (inactive), the GI50 (K562) was > 100 µM (inactive) and the GI50 (HOP-62) was > 100 µM (inactive). For the same molecule, the GI50 (NCI-H522) was 7.57 µM (inactive), the GI50 (SF-295) was > 100 µM (inactive) and the GI50 (HT-29) was > 100 µM (inactive). The GI50 (NCI-H460) was > 100 µM (inactive), the GI50 (KM12) was > 100 µM (inactive) and the GI50 (T47D) was > 31.5 µM (inactive). The GI50 (MDA-N) was > 100 µM (inactive), the GI50 (RXF 393) was > 100 µM (inactive) and the GI50 (CAKI-1) was > 100 µM (inactive). The GI50 (SR) was > 100 µM (inactive).
With `C/C(=C\c1csc(C)n1)[C@@H]1C[C@@H]2O[C@@H]2CCC[C@H](C)[C@H](O)[C@@H](C)C(=O)C(C)(C)[C@@H](O)CC(=O)O1` [EPOTHILONE A] the GI50 (HL-60) was < 0.0001 µM (active), the GI50 (NCI/ADR-RES) was 0.000113 µM (active) and the GI50 (DU-145) was < 0.0001 µM (active). The GI50 (ACHN) was < 0.0001 µM (active), the GI50 (OVCAR-3) was < 0.0001 µM (active) and the GI50 (SN12C) was < 0.0001 µM (active). For the same molecule, the GI50 (A498) was < 0.0001 µM (active), the GI50 (U-251) was < 0.0001 µM (active) and the GI50 (MDA-MB-435) was < 0.0001 µM (active). For the same molecule, the GI50 (UACC-62) was < 0.0001 µM (active), the GI50 (SK-MEL-2) was < 0.0001 µM (active) and the GI50 (M14) was < 0.0001 µM (active). The GI50 (SF-539) was < 0.0001 µM (active), the GI50 (Hs-578T) was < 0.0001 µM (active) and the GI50 (OVCAR-8) was < 0.0001 µM (active). The GI50 (786-0) was < 0.0001 µM (active), the GI50 (TK-10) was 0.0167 µM (active) and the GI50 (PC-3) was < 0.0001 µM (active). The GI50 (MDA-MB-231) was < 0.0001 µM (active), the GI50 (A549) was < 0.0001 µM (active) and the GI50 (RPMI-8226) was < 0.0001 µM (active). For the same molecule, the GI50 (SK-OV-3) was < 0.0001 µM (active), the GI50 (MOLT-4) was < 0.0001 µM (active) and the GI50 (SNB-75) was < 0.0001 µM (active). For the same molecule, the GI50 (SW-620) was < 0.0001 µM (active), the GI50 (OVCAR-4) was 0.124 µM (active) and the GI50 (HCT-116) was < 0.0001 µM (active). For the same molecule, the GI50 (IGROV-1) was < 0.0001 µM (active), the GI50 (BT-549) was < 0.0001 µM (active) and the GI50 (HCC 2998) was < 0.0001 µM (active). For the same molecule, the GI50 (NCI-H23) was < 0.0001 µM (active), the GI50 (COLO 205) was < 0.0001 µM (active) and the GI50 (OVCAR-5) was < 0.0001 µM (active). The GI50 (LOX IMVI) was < 0.0001 µM (active), the GI50 (UO-31) was < 0.0001 µM (active) and the GI50 (MCF7) was < 0.0001 µM (active). The GI50 (HCT-15) was < 0.0001 µM, the GI50 (EKVX) was < 0.0001 µM (active) and the GI50 (CCRF-CEM) was < 0.0001 µM (active). The GI50 (SF-268) was < 0.0001 µM (active), the GI50 (SNB-19) was < 0.0001 µM (active) and the GI50 (SK-MEL-5) was < 0.0001 µM (active). For the same molecule, the GI50 (HOP-92) was 0.0039 µM (active), the GI50 (NCI-H226) was < 0.0001 µM (active) and the GI50 (UACC-257) was < 0.0001 µM (active). For the same molecule, the GI50 (K562) was < 0.0001 µM (active), the GI50 (HOP-62) was < 0.0001 µM (active) and the GI50 (NCI-H522) was < 0.0001 µM (active). For the same molecule, the GI50 (SF-295) was < 0.0001 µM (active), the GI50 (HT-29) was < 0.0001 µM (active) and the GI50 (NCI-H460) was < 0.0001 µM (active). The GI50 (KM12) was < 0.0001 µM (active), the GI50 (T47D) was < 0.0001 µM (active) and the GI50 (MDA-N) was < 0.0001 µM (active). The GI50 (RXF 393) was < 0.0001 µM (active), the GI50 (CAKI-1) was < 0.0001 µM (active) and the GI50 (SR) was < 0.0001 µM (active).
